Measurements published in patent US7829567B2, “Imino-indeno[1,2-c] quinoline derivatives, their preparation processes, and pharmaceutical compositions comprising the same” (Kaohsiung Medical University, priority 2007, dated 2010).
Counter-ions that a name gives are not always drawn. Like-named read-outs stand apart in the source and are kept apart here.

Assays:
[1] = system: human cervical epithelioid carcinoma (HeLa); experiment: In vitro anticancer assay (MTT), HeLa; format: cell-based; conditions: HeLa cells, 48 hrs, mean ± spread, read-out: Anti-proliferative evaluation IC50, HeLa
Procedure: (§1) The resultant tetrazolium salt was then dissolved by the addition of dimethyl sulfoxide. Color was measured spectrophotometrically in a microtiter plate reader at 570 nm and used as a relative measure of viable cell number. The number of viable cells after treatment was compared to solvent and untreated control cells and used to determine the percent of control growth as (Abtreated/Abcontrol)×100, where Ab represents the mean absorbance (n=3). […] D. Heo et al. […] (+)-camptothecin (CPT) and doxorubicin hydrochloride (Dox) were used for comparison with the compounds according to this invention.

[2] = system: esophageal carcinoma (CE81T); experiment: In vitro anticancer assay (MTT), CE81T; format: cell-based; conditions: CE81T cells, 48 hrs, mean ± spread, read-out: Anti-proliferative evaluation IC50, CE81T
Procedure: as §1

[3] = system: hepatocellular carcinoma (SKHep1); experiment: In vitro anticancer assay (MTT), SKHep1; format: cell-based; conditions: 48 hrs, mean ± spread, read-out: Anti-proliferative evaluation IC50, SKHep1
Procedure: as §1

[4] = system: human renal clear cell carcinoma; experiment: In vitro anticancer assay (MTT), RCC 768-O; format: cell-based; conditions: RCC 768-O cells, 48 hrs, mean ± spread, read-out: Anti-proliferative evaluation IC50, RCC 768-O
Procedure: as §1

[5] = system: human stomach adenocarcinoma (AGS); experiment: In vitro anticancer assay (MTT), AGS; format: cell-based; conditions: AGS cells, 48 hrs, mean ± spread, read-out: Anti-proliferative evaluation IC50, AGS
Procedure: as §1

[6] = system: oral squamous cell carcinoma (SAS); experiment: In vitro anticancer assay (MTT), SAS; format: cell-based; conditions: SAS cells, 48 hrs, mean ± spread, read-out: Anti-proliferative evaluation IC50, SAS
Procedure: as §1

cancer cells = experiment: In vitro anticancer assay, summary over the six cancer cells; format: cell-based; conditions: summary of Table 2
Procedure: Six cancer cells, i.e., cells of human cervical epithelioid carcinoma (HeLa), hepatocellular carcinoma (SKHep1), oral squamous cell carcinoma (SAS), human stomach adenocarcinoma (AGS), human renal clear cell carcinoma (RCC 768-O) and esophageal carcinoma (CE81T), were treated with the selected compounds as indicated for 48 hrs in a medium containing 10% FBS (3-[4,5-Dimethylthiazol-2-yl]-2,5-diphenyltetrazolium bromide (MTT, 2 mg/mL, […]) was added to the cultures and incubated during the final 1.5 hrs. The resultant tetrazolium salt was then dissolved by the addition of dimethyl sulfoxide. Color was measured spectrophotometrically in a microtiter plate reader at 570 nm and used as a relative measure of viable cell number. The number of viable cells after treatment was compared to solvent and untreated control cells and used to determine the percent of control growth as (Abtreated/Abcontrol)×100, where Ab represents the mean absorbance (n=3). The concentration that killed 50% of cells (IC50) was determined from the linear portion of the curve by calculating the concentration of agent that reduced absorbance in treated cells, as compared to control cells, by 50% (S. D. Heo et al. (1990), Cancer Res., 50:3681-3690). (+)-camptothecin (CPT) and doxorubicin hydrochloride (Dox) were used for comparison with the compounds according to this invention.

[7] = Homo sapiens, SK-HEP1, SKHep1 cells

Structure (SMILES) | melting point | IC50 ([1]; Homo sapiens) | IC50 [2] | IC50 [3, 7] | IC50 ([4]; Homo sapiens) | IC50 ([5]; Homo sapiens) | IC50 [6] | anticancer activity (in words) (cancer cells) | IC50 [1] | IC50 ([3]; SKHep1 cells) | IC50 [4] | IC50 [5]
CON=C1c2ccccc2-c2c(N3CCNCC3)nc3ccccc3c21 (as salt: salt) [Compound 6j, 6-(Piperazin-1-yl)-11H-indeno[1,2-c]quinolin-11-one O-methyl oxime] | 149 to 150 °C |  |  |  |  |  |  |  |  |  |  | 
CN(C)CCNc1nc2ccccc2c2c1-c1ccccc1C2=O [Compound 5a, 6-(2-(Dimethylamino)ethylamino)-11H-indeno[1,2-c]quinolin-11-one] | 148 to 149 °C | 2.4 ± 1.2 µM | 4.1 ± 3.3 µM | 3.8 ± 1.8 µM | 7.1 ± 0.6 µM | 7.9 ± 1.5 µM | 6.6 ± 0.9 µM |  |  |  |  | 
COc1cccc2c1C(=O)c1c-2c(N2CCNCC2)nc2ccccc12 [Compound 5bb] |  |  | 4.9 ± 1.5 µM |  |  |  | 5.1 ± 0.8 µM | broad and potent anticancer activity | 0.4 ± 0.1 µM | 0.7 ± 0.3 µM | 1.7 ± 0.5 µM | 4.1 ± 1.2 µM
COc1ccc2c(c1)C(=O)c1c-2cnc2ccccc12 [Compound 5d, 9-Methoxy-11H-indeno[1,2-c]quinolin-11-one] | 195 to 196 °C |  |  |  |  |  |  |  |  |  |  | 
COc1ccc2c(c1)C(=O)c1c-2c(O)nc2ccccc12 [Compound 5e, 6-Hydroxy-9-methoxy-11H-indeno[1,2-c]quinolin-11-one] | 316 to 317 °C |  |  |  |  |  |  |  |  |  |  | 
COc1ccc2c(c1)C(=O)c1c-2c(N2CCN(C(=O)CCCl)CC2)nc2ccccc12 [Compound 5hh, 6-[4-(3-Chloropropanoyl)piperazin-1-yl]-9-methoxy-11H-indeno[1,2-c]quinolin-11-one] | 162 to 163 °C |  |  |  |  |  |  |  |  |  |  | 
COc1ccc2c(c1)C(=O)c1c-2c(Nc2ccc(C(C)=O)cc2)nc2ccccc12 [Compound 5s, 6-(4-Acetylphenylamino)-9-methoxy-11H-indeno[1,2-c]quinolin-11-one] | 251 to 252 °C | 7.2 ± 0.9 µM | 6.8 ± 1.2 µM | 7.4 ± 2.1 µM | 9.1 ± 1.5 µM | 5.9 ± 1.4 µM | 6.5 ± 0.9 µM |  |  |  |  | 
COc1ccc2c(c1)C(=O)c1c-2c(N2CCNCC2)nc2ccccc12 [Compound 5x, 9-Methoxy-6-(piperazin-1-yl)-11H-indeno[1,2-c]quinolin-11-one] | 150 to 151 °C | 15.2 ± 1.5 µM | > 30 µM | 25.3 ± 15.5 µM | 12.5 ± 1 µM | 10.1 ± 1.2 µM | > 30 µM |  |  |  |  | 
COc1ccc2c(c1)C(=NO)c1c-2cnc2ccccc12 [Compound 6a, 9-Methoxy-11H-indeno[1,2-c]quinolin-11-one oxime] | 270 to 271 °C |  |  |  |  |  |  |  |  |  |  | 
COc1ccc2c(c1)C(=NOCCCN)c1c-2c(N2CCNCC2)nc2ccccc12 [Compound 6t, 9-Methoxy-6-(piperazin-1-yl)-11H-indeno[1,2-c]quinolin-11-one O-3-aminopropyl oxime] |  | 0.9 ± 0.4 µM | 6.5 ± 0.6 µM | 3 ± 2.2 µM | 4.4 ± 1.4 µM | 5.9 ± 1.2 µM | 6.3 ± 0.9 µM |  |  |  |  | 
COc1ccc2c(c1)C(=NOCCN1CCCC1)c1c-2c(N2CCNCC2)nc2ccccc12 [Compound 6u, 9-Methoxy-6-(piperazin-1-yl)-11H-indeno[1,2-c]quinolin-11-one O-2-(pyrrolidin-1-yl)ethyl oxime] |  | 0.6 ± 0.2 µM | 2.9 ± 1.7 µM | 0.7 ± 0.3 µM | 2.6 ± 0.5 µM | 4.8 ± 1.3 µM | 2.4 ± 1.3 µM |  |  |  |  | 
COc1ccc2c(c1)C(=NOCCN1CCCCC1)c1c-2c(N2CCNCC2)nc2ccccc12 [Compound 6v, 9-Methoxy-6-(piperazin-1-yl)-11H-indeno[1,2-c]quinolin-11-one O-2-(piperidin-1-yl)ethyl oxime] |  | 0.8 ± 0.3 µM | > 30 µM | 1.6 ± 0.5 µM | 4.5 ± 1.4 µM | 7.1 ± 0.8 µM | 5.8 ± 0.5 µM |  |  |  |  | 
COc1ccc2c(c1)C(=NOCCN1CCOCC1)c1c-2c(N2CCNCC2)nc2ccccc12 [Compound 6w] |  |  | > 30 µM |  |  |  | 6.9 ± 1.3 µM |  | 0.8 ± 0.2 µM | 1 ± 0.4 µM | 4.1 ± 1.9 µM | 5.8 ± 1.9 µM
COc1ccc2c(c1)C(=NOCc1ccccc1)c1c-2c(N2CCNCC2)nc2ccccc12 [Compound 6x] |  |  | 3.4 ± 2.3 µM |  |  |  | 7.6 ± 0.6 µM |  | 6.1 ± 0.3 µM | 4.2 ± 1.8 µM | 7 ± 0.4 µM | 6.1 ± 1.4 µM
COc1ccc2c(c1)C(=NOCC1CO1)c1c-2c(N2CCN(CC3CO3)CC2)nc2ccccc12 (stereo not drawn) [Compound 6y] |  |  | 2 ± 1.2 µM |  |  |  | 6.2 ± 0.9 µM |  | 0.5 ± 0.2 µM | 1 ± 0.5 µM | 8.8 ± 2.2 µM | 8.8 ± 4.1 µM
COc1ccc2c(c1)C(=NOCC(O)CN(C)C)c1c-2c(N2CCN(CC(O)CN(C)C)CC2)nc2ccccc12 (stereo not drawn) [Compound 6z] |  |  | 9 ± 3.6 µM |  |  |  | 9 ± 2.7 µM |  | 1 ± 0.4 µM | 2.5 ± 1.7 µM | 13.9 ± 10.5 µM | 18.6 ± 6.2 µM
COc1cccc2c1C(=O)c1c(O)c3c(c(O)c1C2=O)C[C@@](O)(C(=O)CO)C[C@@H]3O[C@H]1C[C@H](N)[C@H](O)[C@H](C)O1 [Dox, doxorubicin hydrochloride, reference compound] |  | 0.4 ± 0.1 µM | 0.3 ± 0.1 µM | < 0.1 µM | 2.2 ± 0.3 µM | > 30 µM | 5.7 ± 0.3 µM |  |  |  |  | 
